Results: patent US10538555B2, “Macrocyclic inhibitors of the PD-1/PD-L1 and CD80(B7-1)/PD-L1 protein/protein interactions” (BRISTOL-MYERS SQUIBB COMPANY, priority 2014, dated 2020)
*1 amine or outer side, *2 acyl side, *3 side chain or, on linkers, in order; H or OH if unused. Where a SMILES comes first, the peptide text is derived from it. Bridges are numbered along the chain shown (N, C = ends). [ ]: non-standard residue; d: D form. Phe(3,4,5-F3) = N[C@@H](Cc1cc(F)c(F)c(F)c1)C(=O)O; d(cisHyp) = O=C(O)[C@H]1C[C@@H](O)CN1; NMeY = CN[C@@H](Cc1ccc(O)cc1)C(=O)O; NMeF = CN[C@@H](Cc1ccccc1)C(=O)O; X1 = O=C([C@H]1COCCN1[*:1])[*:2]; NMeNle = CCCC[C@H](NC)C(=O)O; Orn = NCCC[C@H](N)C(=O)O; Dab = NCC[C@H](N)C(=O)O

molecular target: T1, Human PD-L1/PD-1 (Homo sapiens, UniProt Q9NZQ7); assay: HTRF Human PD-L1/PD-1 binding assay (PD-1-Ig/PD-L1-His); conditions: PD-L1-His 10 nM, PD-1-Ig 20 nM; class symbol; read-out: HTRF Human PD-L1/PD-1 Binding Assay IC50 Range
T1 construct: TVMV protease cleavage site (C); made in house; host or cells: HEK293T cells
T1 sequence (Q9NZQ7 with tags, fused parts or gaps): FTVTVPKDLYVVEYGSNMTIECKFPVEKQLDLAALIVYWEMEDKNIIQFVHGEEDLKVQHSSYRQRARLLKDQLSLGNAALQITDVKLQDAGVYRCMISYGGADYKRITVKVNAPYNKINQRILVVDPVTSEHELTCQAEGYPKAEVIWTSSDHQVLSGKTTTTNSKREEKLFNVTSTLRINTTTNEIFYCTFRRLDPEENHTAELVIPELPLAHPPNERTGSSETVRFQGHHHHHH
In short: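 Inhibitors were preincubated 15 min with human PD-L1(18-239)-His (10 nM final), then PD-1(25-167)-Ig (20 nM final) was added for 15 min in dPBS/0.1% BSA/0.05% Tween-20. Eu-cryptate anti-Ig (1 nM) and APC anti-His (20 nM) were added; 665/620 nm ratio read after 30 min.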

| IC50 [nM] | SMILES |
| --- | --- |
| 10 to 99.9 | CCCC[C@H]1C(=O)N2CCC[C@@H]2C(=O)N[C@@H](CC(=O)O)C(=O)N[C@@H](C(C)C)C(=O)N(C)[C@@H](Cc2ccccc2)C(=O)N[C@@H](CCC(=O)O)C(=O)N2CCOC[C@@H]2C(=O)N[C@@H](Cc2c[nH]c3ccccc23)C(=O)N[C@@H](Cc2ccc(O)cc2)C(=O)N[C@@H](CCCN)C(=O)N[C@H](C(=O)NCC(N)=O)CSCC(=O)N[C@@H](Cc2cc(F)c(F)c(F)c2)C(=O)N(C)[C@@H](Cc2ccc(O)cc2)C(=O)N1C [Example 10618] ({CH2CO}-[Phe(3,4,5-F3)][NMeY][NMeNle][dP]DV[NMeF]E[X1]WY[Orn]CG-NH2; thioether N-13) |
| 10 to 99.9 | CCCC[C@H]1C(=O)N2CCC[C@@H]2C(=O)N[C@@H](CC(=O)O)C(=O)N[C@@H](C(C)C)C(=O)N(C)[C@@H](Cc2ccccc2)C(=O)N[C@@H](CCC(=O)O)C(=O)N2CCOC[C@@H]2C(=O)N[C@@H](Cc2c[nH]c3ccccc23)C(=O)N[C@@H](Cc2ccc(O)cc2)C(=O)N[C@@H](CCC(N)=O)C(=O)N[C@H](C(=O)NCC(N)=O)CSCC(=O)N[C@@H](Cc2cc(F)c(F)c(F)c2)C(=O)N(C)[C@@H](Cc2ccc(O)cc2)C(=O)N1C [Example 10619] ({CH2CO}-[Phe(3,4,5-F3)][NMeY][NMeNle][dP]DV[NMeF]E[X1]WYQCG-NH2; thioether N-13) |
| 10 to 99.9 | CCCC[C@H]1C(=O)N2CCC[C@@H]2C(=O)N[C@@H](CC(=O)O)C(=O)N[C@@H](C(C)C)C(=O)N(C)[C@@H](Cc2ccccc2)C(=O)N[C@@H](CCN)C(=O)N2CCOC[C@@H]2C(=O)N[C@@H](Cc2c[nH]c3ccccc23)C(=O)N[C@@H](Cc2ccc(O)cc2)C(=O)N[C@@H](CC(C)C)C(=O)N[C@H](C(=O)NCC(N)=O)CSCC(=O)N[C@@H](Cc2cc(F)c(F)c(F)c2)C(=O)N(C)[C@@H](Cc2ccc(O)cc2)C(=O)N1C [Example 10622] ({CH2CO}-[Phe(3,4,5-F3)][NMeY][NMeNle][dP]DV[NMeF][Dab][X1]WYLCG-NH2; thioether N-13) |
| 1 to 9.9 | CCCC[C@H]1C(=O)N2CCC[C@@H]2C(=O)N[C@@H](CC(=O)O)C(=O)N[C@@H](C(C)C)C(=O)N(C)[C@@H](Cc2ccccc2)C(=O)N[C@@H](CCN)C(=O)N2CCOC[C@@H]2C(=O)N[C@@H](Cc2c[nH]c3ccccc23)C(=O)N[C@@H](Cc2ccc(O)cc2)C(=O)N[C@@H](CCN)C(=O)N[C@H](C(=O)NCC(N)=O)CSCC(=O)N[C@@H](Cc2cc(F)c(F)c(F)c2)C(=O)N(C)[C@@H](Cc2ccc(O)cc2)C(=O)N1C [Example 10623] ({CH2CO}-[Phe(3,4,5-F3)][NMeY][NMeNle][dP]DV[NMeF][Dab][X1]WY[Dab]CG-NH2; thioether N-13) |
| 10 to 99.9 | CCCC[C@H]1C(=O)N2CCC[C@@H]2C(=O)N[C@@H](CC(=O)O)C(=O)N[C@@H](C(C)C)C(=O)N(C)[C@@H](Cc2ccccc2)C(=O)N[C@@H](CCN)C(=O)N2CCOC[C@@H]2C(=O)N[C@@H](Cc2c[nH]c3ccccc23)C(=O)N[C@@H](Cc2ccc(O)cc2)C(=O)N[C@@H](CCC(=O)O)C(=O)N[C@H](C(=O)NCC(N)=O)CSCC(=O)N[C@@H](Cc2cc(F)c(F)c(F)c2)C(=O)N(C)[C@@H](Cc2ccc(O)cc2)C(=O)N1C [Example 10624] ({CH2CO}-[Phe(3,4,5-F3)][NMeY][NMeNle][dP]DV[NMeF][Dab][X1]WYECG-NH2; thioether N-13) |
| 10 to 99.9 | CCCC[C@H]1C(=O)N2CCC[C@@H]2C(=O)N[C@@H](CC(=O)O)C(=O)N[C@@H](C(C)C)C(=O)N(C)[C@@H](Cc2ccccc2)C(=O)N[C@@H](CCN)C(=O)N2CCOC[C@@H]2C(=O)N[C@@H](Cc2c[nH]c3ccccc23)C(=O)N[C@@H](Cc2ccc(O)cc2)C(=O)N[C@@H](CCCN)C(=O)N[C@H](C(=O)NCC(N)=O)CSCC(=O)N[C@@H](Cc2cc(F)c(F)c(F)c2)C(=O)N(C)[C@@H](Cc2ccc(O)cc2)C(=O)N1C [Example 10625] ({CH2CO}-[Phe(3,4,5-F3)][NMeY][NMeNle][dP]DV[NMeF][Dab][X1]WY[Orn]CG-NH2; thioether N-13) |
| 10 to 99.9 | CCCC[C@H]1C(=O)N2CCC[C@@H]2C(=O)N[C@@H](CC(=O)O)C(=O)N[C@@H](C(C)C)C(=O)N(C)[C@@H](Cc2ccccc2)C(=O)N[C@@H](CCN)C(=O)N2CCOC[C@@H]2C(=O)N[C@@H](Cc2c[nH]c3ccccc23)C(=O)N[C@@H](Cc2ccc(O)cc2)C(=O)N[C@@H](CCC(N)=O)C(=O)N[C@H](C(=O)NCC(N)=O)CSCC(=O)N[C@@H](Cc2cc(F)c(F)c(F)c2)C(=O)N(C)[C@@H](Cc2ccc(O)cc2)C(=O)N1C [Example 10626] ({CH2CO}-[Phe(3,4,5-F3)][NMeY][NMeNle][dP]DV[NMeF][Dab][X1]WYQCG-NH2; thioether N-13) |
| 10 to 99.9 | CCCC[C@H]1C(=O)N2CCOC[C@@H]2C(=O)N[C@@H](CC(=O)O)C(=O)N[C@@H](C(C)C)C(=O)N(C)[C@@H](Cc2ccccc2)C(=O)N[C@@H](CCN)C(=O)N2CCOC[C@@H]2C(=O)N[C@@H](Cc2c[nH]c3ccccc23)C(=O)N[C@@H](Cc2ccc(O)cc2)C(=O)N[C@@H](CCC(=O)O)C(=O)N[C@H](C(=O)NCC(N)=O)CSCC(=O)N[C@@H](Cc2cc(F)c(F)c(F)c2)C(=O)N(C)[C@@H](Cc2ccc(O)cc2)C(=O)N1C [Example 10628] ({CH2CO}-[Phe(3,4,5-F3)][NMeY][NMeNle][X1]DV[NMeF][Dab][X1]WYECG-NH2; thioether N-13) |
| 10 to 99.9 | CCCC[C@H]1C(=O)N2CCC[C@@H]2C(=O)N[C@@H](CC(=O)O)C(=O)N[C@@H](C(C)C)C(=O)N(C)[C@@H](Cc2ccccc2)C(=O)N[C@@H](CCC(=O)O)C(=O)N2C[C@H](O)C[C@@H]2C(=O)N[C@@H](Cc2c[nH]c3ccccc23)C(=O)N[C@@H](Cc2ccc(O)cc2)C(=O)N[C@@H](CC(C)C)C(=O)N[C@H](C(=O)NCC(N)=O)CSCC(=O)N[C@@H](Cc2cc(F)c(F)c(F)c2)C(=O)N(C)[C@@H](Cc2ccc(O)cc2)C(=O)N1C [Example 10629] ({CH2CO}-[Phe(3,4,5-F3)][NMeY][NMeNle][dP]DV[NMeF]E[d(cisHyp)]WYLCG-NH2; thioether N-13) |
| 10 to 99.9 | CCCC[C@H]1C(=O)N2CCC[C@@H]2C(=O)N[C@@H](CC(=O)O)C(=O)N[C@@H](C(C)C)C(=O)N(C)[C@@H](Cc2ccccc2)C(=O)N[C@@H](CCC(=O)O)C(=O)N2C[C@H](O)C[C@@H]2C(=O)N[C@@H](Cc2c[nH]c3ccccc23)C(=O)N[C@@H](Cc2ccc(O)cc2)C(=O)N[C@@H](CCC(N)=O)C(=O)N[C@H](C(=O)NCC(N)=O)CSCC(=O)N[C@@H](Cc2cc(F)c(F)c(F)c2)C(=O)N(C)[C@@H](Cc2ccc(O)cc2)C(=O)N1C [Example 10631] ({CH2CO}-[Phe(3,4,5-F3)][NMeY][NMeNle][dP]DV[NMeF]E[d(cisHyp)]WYQCG-NH2; thioether N-13) |
| 1 to 9.9 | CCCC[C@H]1C(=O)N2CCC[C@@H]2C(=O)N[C@@H](CC(=O)O)C(=O)N[C@@H](C(C)C)C(=O)N(C)[C@@H](Cc2ccccc2)C(=O)N[C@@H](CCC(=O)O)C(=O)N2C[C@H](O)C[C@@H]2C(=O)N[C@@H](Cc2c[nH]c3ccccc23)C(=O)N[C@@H](Cc2ccc(O)cc2)C(=O)N[C@@H](CCCN)C(=O)N[C@H](C(=O)NCC(N)=O)CSCC(=O)N[C@@H](Cc2cc(F)c(F)c(F)c2)C(=O)N(C)[C@@H](Cc2ccc(O)cc2)C(=O)N1C [Example 10632] ({CH2CO}-[Phe(3,4,5-F3)][NMeY][NMeNle][dP]DV[NMeF]E[d(cisHyp)]WY[Orn]CG-NH2; thioether N-13) |
